Reference: ChEMBL document CHEMBL1147633, “Structure-activity relationships of a novel class of endothelin receptor selective antagonists; 6-carboxy-2-isopropylamino-5,7-diarylcyclopenteno[1,2-b]pyridines” (Bioorg Med Chem Lett, 2004)

Key:
[1] = target: T1, Endothelin receptor type B (Homo sapiens, UniProt P24530); experiment: Inhibitory activity against [125I]ET1 binding to human endothelin B receptor
T1 sequence (P24530 whole entry): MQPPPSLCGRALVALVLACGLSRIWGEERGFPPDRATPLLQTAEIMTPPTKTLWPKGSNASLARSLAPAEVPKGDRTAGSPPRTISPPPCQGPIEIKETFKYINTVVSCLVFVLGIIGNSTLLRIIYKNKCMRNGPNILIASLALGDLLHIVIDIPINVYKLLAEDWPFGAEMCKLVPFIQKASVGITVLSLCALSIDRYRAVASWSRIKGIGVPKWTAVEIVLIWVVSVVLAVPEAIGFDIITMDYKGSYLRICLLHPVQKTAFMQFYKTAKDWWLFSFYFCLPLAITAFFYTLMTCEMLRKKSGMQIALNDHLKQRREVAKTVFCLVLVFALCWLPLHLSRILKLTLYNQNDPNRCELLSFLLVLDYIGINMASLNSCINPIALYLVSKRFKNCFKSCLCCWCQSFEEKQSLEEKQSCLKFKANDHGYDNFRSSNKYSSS

[2] = target: T2, Endothelin-1 receptor (Homo sapiens, UniProt P25101); experiment: Inhibitory activity against [125I]ET1 binding to human endothelin A receptor
T2 sequence (P25101 whole entry): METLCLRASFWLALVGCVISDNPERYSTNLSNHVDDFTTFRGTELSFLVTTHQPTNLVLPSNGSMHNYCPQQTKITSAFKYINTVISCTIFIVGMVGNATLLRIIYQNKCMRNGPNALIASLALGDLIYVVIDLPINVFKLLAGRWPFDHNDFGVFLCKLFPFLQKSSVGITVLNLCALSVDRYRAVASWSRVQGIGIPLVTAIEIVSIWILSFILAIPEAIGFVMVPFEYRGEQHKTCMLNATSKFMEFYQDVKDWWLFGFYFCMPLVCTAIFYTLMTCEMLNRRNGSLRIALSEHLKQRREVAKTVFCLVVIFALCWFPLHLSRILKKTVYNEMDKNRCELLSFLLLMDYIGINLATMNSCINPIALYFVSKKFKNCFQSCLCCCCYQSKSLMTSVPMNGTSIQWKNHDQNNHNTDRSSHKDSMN

[3] = target: Endothelin receptor, ET-A/ET-B (Homo sapiens) (UniProt P24530+P25101); experiment: Selectivity ratio of inhibitory activity towards endothelin receptor A to endothelin receptor B (ETB/ETA); format: protein assay
[4] = tested on: Mus musculus; experiment: In vivo efficacy of compound was determined in mouse after intravenous administration; format: functional
[5] = tested on: Rattus norvegicus; experiment: Plasma levels of compound was evaluated in rats after 1 hr of oral administration at 10 mg/kg; format: functional, organism-based; parameters: dose 10 mg/kg
[6] = tested on: Rattus norvegicus; experiment: Plasma levels of compound was evaluated in rats after 4 hr of oral administration at 10 mg/kg; format: functional, organism-based; parameters: dose 10 mg/kg
[7] = tested on: Rattus norvegicus; experiment: Plasma levels of compound was evaluated in rats after 8 hr of oral administration at 10 mg/kg; format: functional, organism-based; parameters: dose 10 mg/kg
[8] = tested on: Rattus norvegicus; experiment: Plasma levels of compound was evaluated in rats after 4 hr of oral administration at 3 mg/kg; format: functional, organism-based; parameters: dose 3 mg/kg
[9] = tested on: Rattus norvegicus; experiment: Plasma levels of compound was evaluated in rats after 1 hr of oral administration at 3 mg/kg; format: functional, organism-based; parameters: dose 3 mg/kg
[10] = tested on: Rattus norvegicus; experiment: Plasma levels of compound was evaluated in rats after 8 hr of oral administration at 3 mg/kg; format: functional, organism-based; parameters: dose 3 mg/kg
[11] = species: Oryctolagus cuniculus; experiment: Antagonistic activity towards endothelin A receptor was evaluated using the rabbit iliac artery in presence of 3% human serum albumin; format: functional

For `CCC(CO)Cc1cc(OC)ccc1[C@@H]1c2nc(NC(C)C)ccc2[C@H](c2ccc3c(c2)OCO3)[C@H]1C(=O)O` (stereo in doubt; form 2) [listing 1 of 2 here], the IC50 [1] was 11 nM and the IC50 [2] was 0.011 nM.
`COc1ccc([C@@H]2c3nc(NC(C)C)ccc3[C@H](c3ccc4c(c3)OCO4)[C@H]2C(=O)O)c(CC(C)C(=O)N(C)C)c1` (single isomer, unassigned) [listing 1 of 2 here] gave a Selectivity ratio [3] of 680.
Work on `COCC(C)Cc1cc(OC)ccc1[C@@H]1c2nc(NC(C)C)ccc2[C@H](c2ccc3c(c2)OCO3)[C@H]1C(=O)O` (stereo in doubt; form 2) [listing 1 of 2 here] yielded an IC50 [1] of 25 nM, an AD50 [4] of 0.042 MPK and an IC50 [2] of 0.011 nM.
`COc1ccc([C@@H]2c3nc(NC(C)C)ccc3[C@H](c3ccc4c(c3)OCO4)[C@H]2C(=O)O)c(OC(C)CO)c1` (stereo in doubt; form 1) [listing 1 of 2 here] was tested, and the Plasma level [5] was 160 nM, the Selectivity ratio [3] was 1700 and the Plasma level [6] was 47 nM. The Plasma level [7] was 62 nM.
Work on `COc1ccc([C@@H]2c3nc(NC(C)C)ccc3[C@H](c3ccc4c(c3)OCO4)[C@H]2C(=O)O)c(OC)c1` yielded a Selectivity ratio [3] of 530, an IC50 [1] of 25 nM and an IC50 [2] of 0.047 nM.
With `CCOc1cc(OC)ccc1[C@@H]1c2nc(NC(C)C)ccc2[C@H](c2ccc3c(c2)OCO3)[C@H]1C(=O)O` the Selectivity ratio [3] was 61, the IC50 [1] was 45 nM and the IC50 [2] was 0.74 nM.
Molecule `COc1ccc([C@@H]2c3nc(NC(C)C)ccc3[C@H](c3ccc4c(c3)OCO4)[C@H]2C(=O)O)c(CC(C)CO)c1` (stereo in doubt; form 2) [listing 1 of 2 here] has an IC50 [1] of 51 nM and an IC50 [2] of 0.059 nM.
In the case of `COc1ccc([C@@H]2c3nc(NC(C)C)ccc3[C@H](c3ccc4c(c3)OCO4)[C@H]2C(=O)O)c(CC(C)C(=O)N(C)C)c1` (stereo in doubt) [listing 1 of 2 here], the Plasma level [5] is reported as 65 nM, the Selectivity ratio [3] is reported as 1800 and the Plasma level [6] is reported as 7 nM. The Plasma level [7] was 10 nM.
Work on `COCC(C)Cc1cc(OC)ccc1[C@@H]1c2nc(NC(C)C)ccc2[C@H](c2ccc3c(c2)OCO3)[C@H]1C(=O)O` (stereo in doubt; form 1) yielded a Plasma level [8] of 81 nM, a Selectivity ratio [3] of 1900 and a Plasma level [9] of 220 nM. It also gave a Plasma level [10] of 52 nM.
For `COc1ccc([C@@H]2c3nc(NC(C)C)ccc3[C@H](c3ccc4c(c3)OCO4)[C@H]2C(=O)O)c(CC(O)CO)c1` (stereo in doubt) [listing 1 of 2 here], the Selectivity ratio [3] was 120.
With `COc1ccc([C@@H]2c3nc(NC(C)C)ccc3[C@H](c3ccc4c(c3)OCO4)[C@H]2C(=O)O)c(OC(C)C)c1` the Selectivity ratio [3] was 800, the IC50 [1] was 88 nM and the IC50 [2] was 0.11 nM.
`COc1ccc([C@@H]2c3nc(NC(C)C)ccc3[C@H](c3ccc4c(c3)OCO4)[C@H]2C(=O)O)c(OCc2ccccc2)c1` showed a Selectivity ratio [3] of 600, an IC50 [1] of 480 nM and an IC50 [2] of 0.8 nM.
With `COc1ccc([C@@H]2c3nc(NC(C)C)ccc3[C@H](c3ccc4c(c3)OCO4)[C@H]2C(=O)O)c(CCCO)c1` the Selectivity ratio [3] was 910, the IC50 [1] was 20 nM and the IC50 [2] was 0.022 nM.
With `CCCOc1cc(OC)ccc1[C@@H]1c2nc(NC(C)C)ccc2[C@H](c2ccc3c(c2)OCO3)[C@H]1C(=O)O` the Selectivity ratio [3] was 240, the IC50 [1] was 100 nM and the IC50 [2] was 0.41 nM.
`COc1ccc([C@@H]2c3nc(NC(C)C)ccc3[C@H](c3ccc4c(c3)OCO4)[C@H]2C(=O)O)c(OCC(C)C)c1` showed a Selectivity ratio [3] of 490, an IC50 [1] of 420 nM and an IC50 [2] of 0.86 nM.
Work on `COc1ccc([C@@H]2c3nc(NC(C)C)ccc3[C@H](c3ccc4c(c3)OCO4)[C@H]2C(=O)O)c(CC(C)C(=O)N(C)C)c1` (single isomer, unassigned) [listing 2 of 2 here] yielded an IC50 [1] of 9.5 nM and an IC50 [2] of 0.014 nM.
For `COc1ccc([C@@H]2c3nc(NC(C)C)ccc3[C@H](c3ccc4c(c3)OCO4)[C@H]2C(=O)O)c(CC(O)CO)c1` (single isomer, unassigned) [listing 1 of 2 here], the Selectivity ratio [3] was 550.
`COc1ccc([C@@H]2c3nc(NC(C)C)ccc3[C@H](c3ccc4c(c3)OCO4)[C@H]2C(=O)O)c(CC(O)CO)c1` (stereo in doubt) [listing 2 of 2 here] was tested, and the IC50 [1] was 5.6 nM and the IC50 [2] was 0.048 nM.
Work on `COc1ccc([C@@H]2c3nc(NC(C)C)ccc3[C@H](c3ccc4c(c3)OCO4)[C@H]2C(=O)O)c(CC(C)CO)c1` (stereo in doubt; form 1) yielded a Plasma level [8] of 22 nM, a Selectivity ratio [3] of 1300 and a Plasma level [9] of 110 nM. It also gave a Plasma level [10] of 11 nM.
`COc1ccc([C@@H]2c3nc(NC(C)C)ccc3[C@H](c3ccc4c(c3)OCO4)[C@H]2C(=O)O)c(OC(C)CO)c1` (stereo in doubt; form 2) [listing 1 of 2 here] showed a PKB [11] of 7.46, an IC50 [1] of 78 nM and an IC50 [2] of 0.057 nM.
For `COCC(C)Cc1cc(OC)ccc1[C@@H]1c2nc(NC(C)C)ccc2[C@H](c2ccc3c(c2)OCO3)[C@H]1C(=O)O` (stereo in doubt; form 2) [listing 2 of 2 here], the Plasma level [5] was 810 nM, the Selectivity ratio [3] was 2300 and the Plasma level [6] was 130 nM. It also gave a Plasma level [7] of 120 nM.
In the case of `COc1ccc([C@@H]2c3nc(NC(C)C)ccc3[C@H](c3ccc4c(c3)OCO4)[C@H]2C(=O)O)c(CC(C)CO)c1` (stereo in doubt; form 2) [listing 2 of 2 here], the Selectivity ratio [3] is reported as 860.
`CCC(CO)Cc1cc(OC)ccc1[C@@H]1c2nc(NC(C)C)ccc2[C@H](c2ccc3c(c2)OCO3)[C@H]1C(=O)O` (stereo in doubt; form 1) [listing 1 of 2 here] showed an IC50 [1] of 15.7 nM and an IC50 [2] of 0.045 nM.
For `COc1ccc([C@@H]2c3nc(NC(C)C)ccc3[C@H](c3ccc4c(c3)OCO4)[C@H]2C(=O)O)c(CC(O)CO)c1` (single isomer, unassigned) [listing 2 of 2 here], the IC50 [1] was 6 nM and the IC50 [2] was 0.011 nM.
Molecule `COc1ccc([C@@H]2c3nc(NC(C)C)ccc3[C@H](c3ccc4c(c3)OCO4)[C@H]2C(=O)O)c(O)c1` has a Selectivity ratio [3] of 1300, an IC50 [1] of 290 nM and an IC50 [2] of 0.22 nM.
With `COc1ccc([C@@H]2c3nc(NC(C)C)ccc3[C@H](c3ccc4c(c3)OCO4)[C@H]2C(=O)O)c(OC(C)CO)c1` (stereo in doubt; form 2) [listing 2 of 2 here] the Plasma level [5] was 440 nM, the Plasma level [6] was 20 nM and the Plasma level [7] was 69 nM.
`COc1ccc([C@@H]2c3nc(NC(C)C)ccc3[C@H](c3ccc4c(c3)OCO4)[C@H]2C(=O)O)c(CCO)c1` was tested, and the Selectivity ratio [3] was 610, the IC50 [1] was 19 nM and the IC50 [2] was 0.031 nM.
For `COc1ccc([C@@H]2c3nc(NC(C)C)ccc3[C@H](c3ccc4c(c3)OCO4)[C@H]2C(=O)O)c(CCC(C)(C)O)c1`, the Selectivity ratio [3] was 350, the IC50 [1] was 23 nM and the IC50 [2] was 0.065 nM.
For `COc1ccc([C@@H]2c3nc(NC(C)C)ccc3[C@H](c3ccc4c(c3)OCO4)[C@H]2C(=O)O)c(OC(C)CO)c1` (stereo in doubt; form 1) [listing 2 of 2 here], the PKB [11] was 8, the IC50 [1] was 61 nM and the AD50 [4] was 0.046 MPK. It also gave an IC50 [2] of 0.036 nM.
Work on `CCC(CO)Cc1cc(OC)ccc1[C@@H]1c2nc(NC(C)C)ccc2[C@H](c2ccc3c(c2)OCO3)[C@H]1C(=O)O` (stereo in doubt; form 1) [listing 2 of 2 here] yielded a Selectivity ratio [3] of 350.
With `CCC(CO)Cc1cc(OC)ccc1[C@@H]1c2nc(NC(C)C)ccc2[C@H](c2ccc3c(c2)OCO3)[C@H]1C(=O)O` (stereo in doubt; form 2) [listing 2 of 2 here] the Selectivity ratio [3] was 910.
For `COc1ccc([C@@H]2c3nc(NC(C)C)ccc3[C@H](c3ccc4c(c3)OCO4)[C@H]2C(=O)O)c(CC(C)C(=O)N(C)C)c1` (stereo in doubt) [listing 2 of 2 here], the IC50 [1] was 43 nM, the AD50 [4] was 0.017 MPK and the IC50 [2] was 0.024 nM.
For `COc1ccc([C@@H]2c3nc(NC(C)C)ccc3[C@H](c3ccc4c(c3)OCO4)[C@H]2C(=O)O)c(CC(C)(C)O)c1`, the Plasma level [5] was 460 nM, the Selectivity ratio [3] was 1000 and the IC50 [1] was 14 nM. The Plasma level [6] was 48 nM, the Plasma level [7] was 110 nM and the AD50 [4] was 0.042 MPK. It also gave an IC50 [2] of 0.014 nM.
